US8686165B2, “Process for preparation of taxane derivatives” (Emcure Pharmaceuticals Limited, priority 2009, dated 2014)
Structures can show the parent of a compound that is named as a salt. Where two headings read alike, the source gives them in different places.

What was measured:
[1] = type: physicochemical; details: 25 ± 2° C./60 ± 5% RH
[2] = Comparative stability profile of docetaxel in solution at 35° C. with and without aluminum sulphate; type: physicochemical; details: for Epi-Docetaxel / Docetaxel: solution at 35° C., trihydrate; for Epi-Docetaxel: 360 min (6 hours); for Docetaxel: 360 min
Protocol: The docetaxel solution prepared according to present invention had 0.19% of epi-docetaxel after 6 hours.

[3] = as above; type: physicochemical

Row | Structure (SMILES) | 7-Epi-docetaxel ([1]; 1 Month) | 10-Deacetyl baccatin III ([1]; 1 Month) | Any individual unspecified unidentified impurity ([1]; 1 Month) | Epi-Docetaxel [2] | Docetaxel [2] | Docetaxel ([3]; 30 min, trihydrate) | Epi-Docetaxel ([3]; 30 min, trihydrate) | Docetaxel ([3]; 60 min, trihydrate) | Epi-Docetaxel ([3]; 60 min, trihydrate) | Docetaxel ([3]; Initial) | Epi-Docetaxel ([3]; Initial) | other results
1 | CC(=O)O[C@@]12CO[C@@H]1C[C@H](O)[C@@]1(C)C(=O)[C@H](O)C3=C(C)[C@@H](OC(=O)[C@H](O)[C@@H](NC(=O)OC(C)(C)C)c4ccccc4)C[C@@](O)([C@@H](OC(=O)c4ccccc4)[C@H]21)C3(C)C.O.O.O [Example 2, Docetaxel trihydrate] | 0.022% | 0.01% | 0.076% | – | – | – | – | – | – | – | – | Total impurities ([1]; 1 Month, listed as docetaxel preparing by a process of the present invention, trihydrate): 0.27%; Total impurities ([1]; 1 Month, trihydrate): 0.27%; 7-Epi-docetaxel ([1]; 2 Month): 0.044%; 10-Deacetyl baccatin III ([1]; 2 Month): 0.01%; Any individual unspecified unidentified impurity ([1]; 2 Month): 0.083%; Total impurities ([1]; 2 Month): 0.27%; 7-Epi-docetaxel ([1]; Initial): 0.02%; Any individual unspecified unidentified impurity ([1]; Initial): 0.07%; Total impurities ([1]; Initial): 0.25%
2 | CC(=O)O[C@@]12CO[C@@H]1C[C@H](O)[C@@]1(C)C(=O)[C@H](O)C3=C(C)[C@@H](OC(=O)[C@H](O)[C@@H](NC(=O)OC(C)(C)C)c4ccccc4)C[C@@](O)([C@@H](OC(=O)c4ccccc4)[C@H]21)C3(C)C.O.O.O [Example 6, Docetaxel trihydrate] | – | – | – | 0.86% | 98.81% | 99.51% | 0.23% | 98.95% | 0.34% | 99.68% | 0.11% | Epi-Docetaxel ([3]; 360 min (6 hours), listed as docetaxel solution prepared without using aluminum sulfate, trihydrate): 0.86%
3 | CC(=O)O[C@@]12CO[C@@H]1C[C@H](O)[C@@]1(C)C(=O)[C@H](O)C3=C(C)[C@@H](OC(=O)[C@H](O)[C@@H](NC(=O)OC(C)(C)C)c4ccccc4)C[C@@](O)([C@@H](OC(=O)c4ccccc4)[C@H]21)C3(C)C [Without potassium aluminum sulfate, docetaxel] | 0.18% | 0.07% | 0.07% | – | – | – | – | – | – | – | – | 7-Epi-10-deacetyl baccatin III ([1]; 1 Month): 0.08%; 7-Epi-10-oxo-10-deacetyl baccatin III ([1]; 1 Month): 0.01%; 7-Epi-10-oxo-Docetaxel ([1]; 1 Month): 0.01%; Total impurities ([1]; 1 Month): 0.58%; Total impurities ([1]; 1 Month, listed as docetaxel prepared without using potassium aluminum sulfate): 0.58%
4 | CC(=O)O[C@@]12CO[C@@H]1C[C@H](O)[C@@]1(C)C(=O)[C@H](O)C3=C(C)[C@@H](OC(=O)[C@H](O)[C@@H](NC(=O)OC(C)(C)C)c4ccccc4)C[C@@](O)([C@@H](OC(=O)c4ccccc4)[C@H]21)C3(C)C.O.O.O [Example 1, Docetaxel trihydrate] | – | – | – | 0.19% | 99.38% | 99.62% | 0.11% | 99.50% | 0.12% | 99.68% | 0.11% | reduction in formation of the epi-isomer degradation product ([2]; compared to a solution prepared without addition of a metal salt): almost a five-fold reduction; Epi-Docetaxel ([3]; 360 min (6 hours), listed as docetaxel solution prepared according to present invention, trihydrate): 0.19%
